Source: paper PMC9880324, “Sugar perception in honeybees” (Frontiers in Physiology, 2023)

What was measured:
AmGr2 = biological target: T1, AmGr2 (Apis mellifera, UniProt A0A7M7R6T6); assay: two-electrode voltage clamp, Xenopus oocytes; format: cell-based; conditions: 160 mM sugar, pH 7.5, -80 mV, agonist
T1 construct: gene LOC413684; cDNA cloned from taste tissue, subcloned in pNBIu, cRNA expressed alone in Xenopus oocytes; homomer
T1 sequence (A0A7M7R6T6 1-470): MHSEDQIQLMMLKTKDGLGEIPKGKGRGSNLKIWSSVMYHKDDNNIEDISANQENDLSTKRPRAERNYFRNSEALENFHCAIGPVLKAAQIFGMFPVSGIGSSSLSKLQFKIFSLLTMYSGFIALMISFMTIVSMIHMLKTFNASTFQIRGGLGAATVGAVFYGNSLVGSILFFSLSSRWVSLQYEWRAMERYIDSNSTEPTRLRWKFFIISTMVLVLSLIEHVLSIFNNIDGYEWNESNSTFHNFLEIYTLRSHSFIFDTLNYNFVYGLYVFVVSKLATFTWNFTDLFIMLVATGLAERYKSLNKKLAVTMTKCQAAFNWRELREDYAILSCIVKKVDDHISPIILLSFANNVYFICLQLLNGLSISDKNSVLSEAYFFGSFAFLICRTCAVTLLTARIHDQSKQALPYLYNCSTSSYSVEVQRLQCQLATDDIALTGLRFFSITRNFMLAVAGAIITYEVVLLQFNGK

AmGr3 = biological target: T2, AmGr3 (Apis mellifera, UniProt A0A7M7IGL4); assay: two-electrode voltage clamp, Xenopus oocytes; format: cell-based; conditions: 160 mM sugar, pH 7.5, -80 and -140 mV; agonist
T2 construct: gene LOC725483; cDNA cloned from taste tissue, subcloned in pNBIu, cRNA expressed alone in Xenopus oocytes
T2 sequence (A0A7M7IGL4 1-474): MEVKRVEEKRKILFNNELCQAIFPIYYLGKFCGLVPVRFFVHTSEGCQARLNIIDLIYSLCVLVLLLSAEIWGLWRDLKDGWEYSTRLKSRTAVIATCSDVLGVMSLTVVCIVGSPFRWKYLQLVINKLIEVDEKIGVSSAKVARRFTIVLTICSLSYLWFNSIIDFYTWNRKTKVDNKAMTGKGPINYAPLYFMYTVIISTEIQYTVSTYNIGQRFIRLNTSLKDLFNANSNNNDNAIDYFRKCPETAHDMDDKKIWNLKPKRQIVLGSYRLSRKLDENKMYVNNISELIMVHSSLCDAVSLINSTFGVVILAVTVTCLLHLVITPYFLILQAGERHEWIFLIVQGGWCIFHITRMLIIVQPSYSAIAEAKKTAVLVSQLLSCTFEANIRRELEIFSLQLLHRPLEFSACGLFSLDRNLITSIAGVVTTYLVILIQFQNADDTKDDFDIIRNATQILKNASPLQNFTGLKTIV

Question: For `OC[C@H]1OC(O)[C@H](O)[C@@H](O)[C@@H]1O` (stereo partly drawn) [glucose], which “two-electrode voltage clamp, Xenopus oocytes” value (“two-electrode voltage clamp” for short) (AmGr2; transient microscopic inward current) is on record?
Answer: The value was “AmGr2-expression revealed transient inward currents during glucose application”.

Question: With `OCC1(O)OC[C@@H](O)[C@@H](O)[C@@H]1O` (stereo partly drawn) [fructose] as the molecule, how does the “two-electrode voltage clamp” value (AmGr3) read?
Answer: The value was “The sole expression of AmGr3 in oocytes revealed only fructose-induced current responses”.

Question: For `OC[C@H]1O[C@@](CO)(O[C@H]2O[C@H](CO)[C@@H](O)[C@H](O)[C@H]2O)[C@@H](O)[C@@H]1O` [sucrose], which “two-electrode voltage clamp” value (AmGr2; microscopic inward current) is on record?
Answer: The value was “Sustained inward currents could only be generated by application of sucrose”.
